Experimental data taken from ChEMBL document CHEMBL5321270, “Discovery of Pyrazolone Carbothioamide Derivatives as Inhibitors of the Pdr1-KIX Interaction for Combinational Treatment of Azole-Resistant Candidiasis” (J Med Chem, 2023).
In brackets after ≈: the same amount, converted by molar mass. Activity calls are given as the source filed them. The rule behind the calls is not given here.

Assays:
[1] = tested on: Candida tropicalis; assay: Antifungal activity against Candida tropicalis 10186 assessed as fungal growth inhibition incubated for 48 hrs by microplate reader assay; assay type: functional
[2] = tested on: [Candida] auris; assay: Antifungal activity against Candida auris 15448 assessed as fungal growth inhibition incubated for 48 hrs by microplate reader assay; assay type: functional; details: Candidozyma auris
[3] = tested on: Aspergillus fumigatus; assay: Antifungal activity against Aspergillus fumigatus 7544 assessed as fungal growth inhibition incubated for 48 hrs by microplate reader assay; assay type: functional
[4] = tested on: Nannizzia gypsea; assay: Antifungal activity against Microsporum gypseum assessed as fungal growth inhibition incubated for 48 hrs by microplate reader assay; assay type: functional
[5] = tested on: Nakaseomyces glabratus; assay: Synergistic antifungal activity against fluconazole-resistant Candida glabrata 0161 assessed as fungal growth inhibition incubated for 48 hrs in presence of fluconazole by time-growth curve assay; assay type: functional, organism-based
[6] = tested on: Nakaseomyces glabratus; assay: Synergistic antifungal activity against fluconazole-resistant Candida glabrata 0161 assessed as inhibition of fungal growth at 2 to 16 ug/ml incubated for 48 hrs in presence of fluconazole by Spot plating assay; assay type: functional, organism-based; details: dose 2-16 µg/ml
[7] = tested on: Nakaseomyces glabratus; assay: Antifungal activity against fluconazole-resistant Candida glabrata 0161 assessed as inhibition of fungal biofilm formation at 32 ug/ml incubated for 24 hrs by XXT reduction menadione assay; assay type: functional
[8] = tested on: Nakaseomyces glabratus; assay: Antifungal activity against fluconazole-resistant Candida glabrata 0161 assessed as increase in Nile red accumulation at 50 uM incubated for 30 mins by nile red staining based confocal microscopic analysis; assay type: functional, organism-based
[9] = tested on: Nakaseomyces glabratus; assay: Synergistic antifungal activity against fluconazole-resistant Candida glabrata 0161 assessed as inhibition of Rhodamine 6G efflux at 1 to 8 ug/ml incubated for 25 hrs in presence of fluconazole by Rhodamine 6G staining based fluorescence assay; assay type: functional, organism-based; details: dose 1-8 µg/ml
[10] = tested on: Nakaseomyces glabratus; assay: Synergistic antifungal activity against FLC-resistant Candida glabrata 0161 infected in cyclophosphamide immunosuppressed ICR mouse model assessed as inhibition of fungal growth in kidney at 5 mg/kg,ip administrated in presence of fluconazole for 5 days; assay type: functional, organism-based; details: time 5.0 day
[11] = Cmax in ICR mouse at 10 mg/kg,po measured upto 24 hrs by LC-MS/MS analysis; assay type: ADME, organism-based; design: dose 10 mg/kg, time < 24 hrs, route po; details: in vivo

Nc1cc(=O)n(C(=S)Nc2ccc3c(c2)CCC3)[nH]1
MIC [1]: 4 µg/mL (≈ 14.6 µM) | MIC [2]: 2 µg/mL (≈ 7.29 µM) | MIC [3]: 16 µg/mL (≈ 58.3 µM) | MIC [4]: 1 µg/mL (≈ 3.64 µM) | Activity [5]: Dose-Dependent Effect | Activity [6]: Active | inhibition at 32 µg/mL [7]: 40% | Activity [8]: Active | Activity [9]: Active | Activity [10]: Active | Cmax [11]: 875 ng/mL
